From US4950677A, “Benzimidazole derivative compounds and method of making” (Hoffmann-La Roche Inc., priority 1987, dated 1990)
Where two headings read alike, the source gives them in different places.

Tests used:
[1] = tested on: indomethacin-induced lesions of the stomach; assay: anti-ulcer activity (protection from indomethacin-induced stomach lesions); format: in vivo; conditions: Rattus norvegicus, po, male rats, given 1 hour before and 2 hours after 20 mg/kg indomethacin p.o.; dosage protecting 50% of animals from lesions
Description: The experimental procedure described hereinafter was used to determine the anti-ulcer activity:
A number of groups of 8 male rats each with a body weight of 130-150 g are used for each dosage of a test substance. Prior to the beginning of the experiment the animals receive no food for 24 hours, but receive water ad libitum. Various dosages of the substances to be tested (suspended in 0.5% tragacanth) or the vehicle alone (controls) are administered twice perorally, namely. 1 hour before and 2 hours after the peroral administration 20 mg/kg of indomethacin. In the control animals, this dosage of indomethacin leads to lesions of the stomach within 5 hours. The animals are killed 6 hours after the first administration of the substance under investigation (or of the vehicle alone). The rats which remain protected from the occurrence of macroscopically visible lesions to the mucous membrane of the stomach are counted. The ED50 is that dosage of a test substance at which 50% of the animals are protected from the occurence of such lesions.
(§1) In the following Table there are given for a series of representative compounds of formula I the results of the testing with respect to their anti-ulcer activity and to their gastric secretion inhibiting activity. Moreover, this Table contains data concerning the acute toxicity (LD50 in the case of single oral administration to mice).

[2] = tested on: gastric acid production caused by 4-methylhistamine; assay: gastric acid secretion-inhibiting activity (4-methylhistamine-stimulated, Heidenhain pouch); format: in vivo; conditions: Canis lupus familiaris, po; p.o. (dry powder in gelatin capsules), conscious beagle hounds, i.v. infusion of 4-methylhistamine; 50% inhibition vs controls
Description: The experimental procedure described hereinafter was used to determine the gastric acid secretion-inhibiting activity:
A part of the stomach fundus of female and male beagle hounds is separated from the remainder of the stomach in the form of a pouch of the Heidenhain type by a modification of the method described in Rudick et al., J. Surgical Research 7, 383-398 (1967). In the pouch there is fitted a steel cannula which is conducted externally through the abdominal wall. Before each experiment the animals receive no food for 18 hours, but receive water ad libitum. They are conscious and standing during the experiment and their gastric acid secretion is stimulated by the intravenous infusion of 4-methylhistamine, a selective […] of the histamine H2 -receptors. The gastric acid production is determined in 15 minute fractions of the stomach pouch juice. As soon as the gastric acid production has a constant value, the substances to be tested are administered orally as a dry powder filled into gelatin capsules. The ED50 is that dosage of a test substance which brings about a 50% inhibition of the gastric acid production caused by 4-methylhistamine in the treated animals in comparison to the controls.
as §1

[3] = acute toxicity (single oral administration); conditions: mouse, in vivo, read-out: Toxicity LD 50
From the text: as §1

[4] = p.o., single oral administration to mice

SMILES | ED50 [1] [mg/kg] | ED50 [2] [mg/kg] | LD50 [3, 4] [mg/kg] | LD50 ([3]; po) [mg/kg]
COc1cc[n+](-c2nc3ccc(C(F)(F)F)cc3[nH]2)c(CSCC(C)(C)OCCO)c1C.CS(=O)(=O)[O-] [A, 2-[[[2-(2-Hydroxyethoxy)-2-methylpropyl]thio]-methyl]-4-methoxy-3-methyl-1-[5-(trifluoromethyl)-2-benzimidazolyl]pyridinium methanesulfonate] | 4.4 | 4.9 | 2500 to 5000 | –
COc1cc[n+](-c2nc3cc(C(F)(F)F)ccc3[n-]2)c(CSCC(C)(C)OCCO)c1C [B, Intramolecularly deprotonized 2-[[[2-(2-hydroxyethoxy)-2-methylpropyl]thio]methyl]-4-methoxy-3-methyl-1-[5-(trifluoromethyl)-2-benzimidazolyl]pyridinium cation] | 6.1 | 3.9 | – | 2500 to 5000
COCCOC(C)(C)CSCc1c(C)c(OC)cc[n+]1-c1nc2ccc(C(F)(F)F)cc2[nH]1.CS(=O)(=O)[O-] [C, 4-Methoxy-2-[[[2-(2-methoxyethoxy)-2-methylpropyl}thio]methyl]-3-methyl-1-[5-(trifluoromethyl)-2-benzimidazolyl]pyridinium methanesulfonate] | 6 | 5.5 | 1000 to 2000 | –
COCCOC(C)(C)CSCc1c(C)c(OC)cc[n+]1-c1nc2cc(C(F)(F)F)ccc2[n-]1 [D, Intramolecularly deprotonized 4-methoxy-2-[[[2-(2-methoxyethoxy)-2-methylpropyl]thio]methyl]-3-methyl-1-[5-(trifluoromethyl)-2-benzimidazolyl]pyridinium cation] | 7 | 4.8 | – | 2500 to 5000
COc1cc[n+](-c2nc3ccc(C(F)(F)F)cc3[nH]2)c(CSCC(C)(C)OC(C)=O)c1C.CS(=O)(=O)[O-] [E, 2-[[(2-Acetoxy-2-methylpropyl)thio]methyl]-4-methoxy-3-methyl-1-[5-(trifluoromethyl)-2-benzimidazolyl]pyridinium methanesulfonate] | 3.2 | 3 | 2500 to 5000 | –
COc1cc[n+](-c2nc3ccc(C(F)(F)F)cc3[nH]2)c(CSCC(C)(C)OC(C)=O)c1C.[Cl-] [F, 2-[[(2-Acetoxy-2-methylpropyl)thio]methyl]-4-methoxy-3-methyl-1-[5-(trifluoromethyl)-2-benzimidazolyl]pyridinium chloride] | 1.9 | 1.8 | 1250 to 2500 | –
COc1cc[n+](-c2nc3cc(C(F)(F)F)ccc3[n-]2)c(CSCC(C)(C)OC(C)=O)c1C [G, Intramolecularly deprotonized 2-[[(2-acetoxy-2-methylpropyl)thio]methyl]-4-methoxy-3-methyl-1-[5-(trifluoromethyl)-2-benzimidazolyl]pyridinium cation] | 2.8 | 1.5 | – | 2500 to 5000
CCOC(C)(C)CSCc1c(C)c(OC)cc[n+]1-c1nc2ccc(C(F)(F)F)cc2[nH]1.CS(=O)(=O)[O-] [H, 2-[[(2-Ethoxy-2-methylpropyl)thio]methyl]-4-methoxy-3-methyl-1-[5-(trifluoromethyl)-2-benzimidazolyl]pyridinium methanesulfonate] | 3.2 | 4.3 | – | –
CCOC(C)(C)CSCc1c(C)c(OC)cc[n+]1-c1nc2ccc(C(F)(F)F)cc2[nH]1.[Cl-] [I, 2-[[(2-Ethoxy-2-methylpropyl)thio]methyl]-4-methoxy-3-methyl-1-[5-(trifluoromethyl)-2-benzimidazolyl]pyridinium chloride] | 4.1 | 3.8 | 2500 to 5000 | –
CCOC(C)(C)CSCc1c(C)c(OC)cc[n+]1-c1nc2cc(C(F)(F)F)ccc2[n-]1 [J, Intramolecularly deprotonized 2-[[(2-ethoxy-2-methylpropyl)thio]methyl]-4-methoxy-3-methyl-1-[5-(trifluoromethyl)-2-benzimidazolyl]pyridinium cation] | 4.6 | 3.7 | – | > 5000
